Measured values from article PMC3034256 (Chemistry & biology, 2011).

Columns and labels:
[1] = tested on: Jurkat T cells; experiment: TCR-mediated tyrosine phosphorylation in Jurkat T cells; assay type: cell-based; conditions: 2 h pretreatment (2 µM; TTN 2–4 µM), 10 µg/mL anti-CD3
[2] = tested on: panel of PTPs; experiment: Screen against a panel of PTPs at 10 µM; assay type: biochemical; conditions: 10 µM compound, pNPP, pH 7, 25 °C
[3] = tested on: Jurkat T cells; experiment: TCR-mediated ERK1/2 activation in Jurkat T cells; assay type: cell-based; conditions: 2 h pretreatment (2 µM), 10 µg/mL anti-CD3

SMILES: CO[C@H]([C@H](O)CC(=O)[C@@H](C)[C@@H](O)CC[C@@H](C)[C@@H]1O[C@]2(CC[C@@H](C)[C@H](CC[C@H](C)C(C)=O)O2)CC[C@@H]1C)[C@H](OC(=O)C[C@@H](O)C1=C(C)C(=O)OC1=O)C(C)C [TTM, tautomycin, reference compound]
- effect on TCR-mediated tyrosine phosphorylation [1]: had no effect
- inhibitory activity against the panel of PTPs [2]: neither TTM nor its analogs exhibited any inhibitory activity
- effect on TCR-mediated ERK1/2 activation [3]: no appreciable change
